Data on twelve compounds can be found in patent US20160122340A1, “HISTONE DEACETYLASE INHIBITORS BASED ON DERIVATIVES OF TRICYCLIC POLYHYDROACRIDINE AND ANALOGS POSSESSING FUSED SATURATED FIVE-AND-SEVEN-MEMBERED RINGS” (QUIMATRYX, S.L., priority 2013, published 2016).

Read-outs that look alike come from different tables or passages of the source.

The target of data set [1] is T1, Human HDAC1 (Homo sapiens, UniProt Q13547).
T1 construct: Full length with C-terminal GST tag, MW=79.9 kDa; GST (C); purchased BioMol SE-456; host or cells: baculovirus / Sf9 cells
T1 sequence (Q13547 whole entry): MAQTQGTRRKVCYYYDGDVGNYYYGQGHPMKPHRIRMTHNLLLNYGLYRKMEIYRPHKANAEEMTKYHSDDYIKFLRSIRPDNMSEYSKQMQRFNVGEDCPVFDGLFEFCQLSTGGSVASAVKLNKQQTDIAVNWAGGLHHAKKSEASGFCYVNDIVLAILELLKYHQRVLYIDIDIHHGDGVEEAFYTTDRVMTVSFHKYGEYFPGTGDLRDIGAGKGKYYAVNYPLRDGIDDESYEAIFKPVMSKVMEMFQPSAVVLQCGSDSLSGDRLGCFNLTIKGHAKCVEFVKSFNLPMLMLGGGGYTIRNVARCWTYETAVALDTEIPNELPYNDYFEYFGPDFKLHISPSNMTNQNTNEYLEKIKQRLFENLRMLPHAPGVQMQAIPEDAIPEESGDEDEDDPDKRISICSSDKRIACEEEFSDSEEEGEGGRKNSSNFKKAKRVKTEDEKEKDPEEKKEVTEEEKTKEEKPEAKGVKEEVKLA
In words: In vitro HDAC1 inhibition, fluorogenic peptide substrate. The conditions noted are these: No preincubation; read-out: IC50 (μM) HDAC-1. Type of data set: biochemical. As to the method: (§1) In Vitro Inhibitory Activity of Histone Deacetylase: Human Isoforms HDAC1, 2, 3, 4, 5, 6, 7, 8, 9, 10 and 11 and HeLa Cell Line Nuclear Extract (IC50 Data)
(§2) All HDAC assays were performed using acetylated AMC-labeled peptide substrate: • Substrate for isoforms HDAC1, 2, 3, 6, 10, 11 and HeLa nuclear extract assays: Acetylated fluorogenic peptide from p53 residues 379-382 (RHKKAc). • Substrate for isoforms HDAC 4, 5, 7, 9: Fluorogenic Boc-L-Lys(ε-trifluoroacetyl)-AMC. • Substrate for HDAC8 assays: Acetylated fluorogenic peptide from p53 residues 379-382 (RHKAcKAc).
(§3) 50 μM of substrate peptide (see ‘substrate peptides’ section above) and an optimal concentration of the corresponding enzyme (see ‘enzymes’ section above) in the assay buffer and 1% final concentration of DMSO were incubated in the presence of gradient concentrations of inhibitors (10-dose IC50 mode with 3-fold serial dilution) at 30° C. for 2 h. The reactions were carried out in a 96-well microplate for fluorometry in a 50 μl reaction volume. After the deacetylation reaction, Fluor-de-Lys-Developer (BioMol Cat. # KI-105) was added to each well to digest the deacetylated substrate, thus producing the fluorescent signal. The reaction was allowed to develop for 45 minutes at 30° C. with 5% CO2; then the fluorescent signal was measured with an excitation wavelength at 360 nm and an emission wavelength at 460 nm in a microplate-reading fluorometer (GeminiXS; Molecular Devices, Sunnyvale, Calif.). A curve of Deacetylated Standard (Biomol, Cat. # KI-142; made from 100 μM with 1:2 dilution and 10-doses, 6 μl) allowed the conversion of fluorescent signal into micromoles of deacetylated product. All experiments were performed in triplicate. IC50 was calculated by fitting the experimental data to a dose-response curve. DMSO was used as negative control; Trichostatin A (Biomol Cat. # GR-309) was used as positive control inhibitor.

The target in data set [2] is T1, Human HDAC1. The description is as above. Type of data set: biochemical. The settings on record: 4 h preincubation; read-out: IC50 (μM) HDAC-1.
Another data set addresses T2, Human HDAC2 (Homo sapiens, UniProt Q92769).
T2 construct: Full length with C-terminal His tag, MW=60 kDa; His (C); purchased BioMol SE-500; host or cells: baculovirus / Sf9 cells
In words: In vitro HDAC2 inhibition, fluorogenic peptide substrate. Type of data set: biochemical. The conditions noted are these: read-out: IC50 (μM) HDAC-2. The procedure:
as §1, §2, §3

The target of another data set is T3, Human HDAC6 (Homo sapiens, UniProt Q9UBN7).
T3 construct: Full length with N-terminal GST tag, MW=159 kDa; GST (N); purchased BioMol SE-508; host or cells: baculovirus / Sf9 cells
T3 sequence (Q9UBN7 1-1215): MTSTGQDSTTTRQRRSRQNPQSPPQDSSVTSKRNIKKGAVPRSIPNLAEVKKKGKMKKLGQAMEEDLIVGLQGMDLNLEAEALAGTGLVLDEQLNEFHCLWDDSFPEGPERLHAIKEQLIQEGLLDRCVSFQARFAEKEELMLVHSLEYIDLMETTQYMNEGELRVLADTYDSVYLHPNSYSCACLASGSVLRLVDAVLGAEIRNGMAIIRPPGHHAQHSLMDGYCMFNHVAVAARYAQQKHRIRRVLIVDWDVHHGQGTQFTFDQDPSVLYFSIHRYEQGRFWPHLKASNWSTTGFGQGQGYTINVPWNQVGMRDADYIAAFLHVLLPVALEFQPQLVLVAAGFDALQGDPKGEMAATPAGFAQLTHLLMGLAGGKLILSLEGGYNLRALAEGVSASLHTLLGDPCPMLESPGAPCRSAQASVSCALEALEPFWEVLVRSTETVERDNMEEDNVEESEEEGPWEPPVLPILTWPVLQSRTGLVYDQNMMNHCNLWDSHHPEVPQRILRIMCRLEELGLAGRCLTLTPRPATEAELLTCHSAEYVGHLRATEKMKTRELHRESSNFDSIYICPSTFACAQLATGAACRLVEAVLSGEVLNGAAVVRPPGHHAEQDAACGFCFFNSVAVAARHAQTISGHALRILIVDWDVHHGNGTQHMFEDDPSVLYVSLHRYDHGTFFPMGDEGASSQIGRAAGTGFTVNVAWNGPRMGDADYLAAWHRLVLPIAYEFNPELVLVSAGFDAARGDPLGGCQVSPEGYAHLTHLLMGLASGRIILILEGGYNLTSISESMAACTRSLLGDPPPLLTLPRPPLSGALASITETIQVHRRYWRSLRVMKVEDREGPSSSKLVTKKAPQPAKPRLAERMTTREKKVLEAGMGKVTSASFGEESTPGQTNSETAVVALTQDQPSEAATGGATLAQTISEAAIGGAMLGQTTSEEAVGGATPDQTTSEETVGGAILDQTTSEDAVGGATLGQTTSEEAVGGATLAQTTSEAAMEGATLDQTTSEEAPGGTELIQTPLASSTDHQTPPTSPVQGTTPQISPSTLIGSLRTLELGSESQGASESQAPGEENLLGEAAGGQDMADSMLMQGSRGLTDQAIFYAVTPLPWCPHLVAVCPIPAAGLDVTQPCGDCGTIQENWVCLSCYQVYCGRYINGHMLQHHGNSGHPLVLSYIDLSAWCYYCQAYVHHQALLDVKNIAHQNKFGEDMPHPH
In words: In vitro HDAC6 inhibition, fluorogenic peptide substrate. It is filed as biochemical. The settings on record: No preincubation; read-out: IC50 (μM) HDAC-6. The procedure:
as §1, §2, §3

Data set [3] concerns T4, Nuclear Extract from HeLa Cells.
T4 construct: 25 ng/μl Nuclear Extract from HeLa Cells: Prepared by high salt extraction of HeLa nuclei (human cervical cancer cell line)
In words: HeLa nuclear extract HDAC activity inhibition. It is filed as biochemical, human. As to the method:
as §1, §2
as §3, with “50 μM of substrate peptide (see ‘substrate peptides’ section above) and an optimal concentration of the corresponding enzyme (see ‘enzymes’ section above) in the assay buffer and 1% final concentration of DMSO were incubated in the presence of gradient concentrations of inhibitors (10-dose IC50 mode with 3-fold serial dilution) at 30° C. for 2 h.” left out

T2 sequence (Q92769 whole entry): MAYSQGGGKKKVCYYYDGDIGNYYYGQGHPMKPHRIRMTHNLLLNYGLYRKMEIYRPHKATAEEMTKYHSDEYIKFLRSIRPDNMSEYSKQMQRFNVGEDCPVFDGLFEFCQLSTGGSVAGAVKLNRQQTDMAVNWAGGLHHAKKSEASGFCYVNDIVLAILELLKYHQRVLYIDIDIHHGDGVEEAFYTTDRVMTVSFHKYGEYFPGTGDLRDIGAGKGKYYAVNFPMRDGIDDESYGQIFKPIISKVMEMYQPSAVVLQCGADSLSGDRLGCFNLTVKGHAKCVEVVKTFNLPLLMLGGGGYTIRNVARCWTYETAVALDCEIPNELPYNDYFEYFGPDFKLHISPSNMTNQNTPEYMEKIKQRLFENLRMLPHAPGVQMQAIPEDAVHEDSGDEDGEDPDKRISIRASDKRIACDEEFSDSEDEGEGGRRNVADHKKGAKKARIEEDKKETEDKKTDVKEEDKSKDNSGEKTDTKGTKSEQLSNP

Turning to `Cc1ccc(N)c(NC(=O)CCCCCCNc2c3c(nc4ccccc24)CCCC3)c1` [Example 13, N-(2-amino-5-methylphenyl)-7-((1,2,3,4-tetrahydroacridin-9-yl)amino)heptanamide], the melting point fell in the range of 204 to 205 °C. For the same compound, the IC50 at Human HDAC1 [1] is 57.3 µM. The IC50 at Human HDAC1 [2] is > 50 µM. The IC50 at Human HDAC2 (4 h preincubation) stood at 54.3 µM. On Human HDAC2 (No preincubation), the IC50 came out at 62.9 µM. The IC50 on Human HDAC6 was > 50 µM.

Compound `Cc1cccc(-c2ccc(N)c(NC(=O)CCCCCCNc3c4c(nc5ccccc35)CCCC4)c2)c1` [Example 17, N-(4-amino-3′-methyl-[1,1′-biphenyl]-3-yl)-7-[(1,2,3,4-tetrahydroacridin-9-yl)amino]heptanamide] came in with a melting point of 53 to 54 °C. This compound had an IC50 in data set [3] (4 h preincubation) of 73.6 µM. Half-maximal inhibition in data set [3] (No preincubation) (IC50) required 84.1 µM. For the same compound, on Human HDAC1 [1], the IC50 turned out to be 250 µM. The IC50 at Human HDAC1 [2] was 118 µM. Besides, the IC50 on Human HDAC2 (4 h preincubation) worked out at 76 µM. Also, on Human HDAC2 (No preincubation), the IC50 was determined as 188 µM.

Regarding `Cc1ccc(NC(=O)CCCCCCNc2c3c(nc4ccccc24)CCCC3)c(N)c1` [Example 12, N-(2-amino-4-methylphenyl)-7-[(1,2,3,4-tetrahydroacridin-9-yl)amino]heptanamide], the melting point fell in the range of 63 to 64 °C. Besides, the IC50 at Human HDAC1 [1] is > 50 µM. Besides, the IC50 at Human HDAC2 (No preincubation) was > 50 µM. Also, the IC50 on Human HDAC6 was > 50 µM.

Compound `Nc1ccc(-c2ccccc2)cc1NC(=O)CCCCCNc1c2c(nc3ccccc13)CCCC2` [Example 16, N-(4-Amino-[1,1′-biphenyl]-3-yl)-6-[(1,2,3,4-tetrahydroacridin-9-yl)amino]hexanamide] displayed a melting point of 75 to 76 °C.

Take `O=C(NO)c1ccc(CNc2c3c(nc4ccccc24)CCCC3)cc1` [Example 9, N-hydroxy-4-{[(1,2,3,4-tetrahydroacridin-9-yl)amino]methyl}benzamide]: the melting point was in the range of 204 to 205 °C. Besides, in data set [3], it took 0.9 µM to reach half-maximal inhibition (IC50).

The compound `O=C(CCCCCCNc1c2c(nc3c(O)cccc13)CCCC2)NO` [Example 6, N-hydroxy-7-[(5-hydroxy-1,2,3,4-tetrahydroacridin-9-yl)amino]heptanamide] returned a melting point of 73 °C.

Take `Nc1ccc(-c2ccccc2)cc1NC(=O)CCCCCCNc1c2c(nc3ccccc13)CCCC2` [Example 15, N-(4-amino-[1,1′-biphenyl]-3-yl)-7-[(1,2,3,4-tetrahydroacridin-9-yl)amino]heptanamide]: the melting point was 101 to 102 °C. This compound yielded an IC50 in data set [3] (4 h preincubation) of 3.99 µM. Also, the IC50 in data set [3] (No preincubation) was 4.68 µM. Moreover, the IC50 at Human HDAC1 [1] was 1.26 µM. Further, on Human HDAC1 [2], the IC50 came out at 1.48 µM. Besides, the IC50 at Human HDAC2 (4 h preincubation) stood at 0.079 µM. Besides, the IC50 at Human HDAC2 (No preincubation) came to 1.7 µM. At Human HDAC6, the IC50 was 13.2 µM.

In turn, `CC(C)(C)c1ccc(-c2ccc(N)c(NC(=O)CCCCCCNc3c4c(nc5ccccc35)CCCC4)c2)cc1` [Example 18, N-{4-amino-4′-(tert-butyl)-[1,1′-biphenyl]-3-yl}-7-[(1,2,3,4-tetrahydroacridin-9-yl)amino]heptanamide] gave a melting point of 55 to 56 °C. Moreover, the IC50 in data set [3] (4 h preincubation) stood at 25.5 µM. In addition, in data set [3] (No preincubation), 429 µM corresponded to half-maximal inhibition (IC50). Also, at Human HDAC1 [1], the IC50 worked out at 46.7 µM. The IC50 at Human HDAC1 [2] is 48.1 µM. Moreover, the IC50 at Human HDAC2 (4 h preincubation) is 65.9 µM. The IC50 on Human HDAC2 (No preincubation) was > 50 µM.

For the compound `Nc1ccc(-c2ccc3ccccc3c2)cc1NC(=O)CCCCCCNc1c2c(nc3ccccc13)CCCC2` [Example 19, N-[2-amino-5-(naphthalen-2-yl)phenyl]-7-[(1,2,3,4-tetrahydroacridin-9-yl)amino]heptanamide], the melting point fell in the range of 100 to 101 °C. The compound further yielded an IC50 in data set [3] (4 h preincubation) of 39.3 µM. Further, inhibition in data set [3] (No preincubation) was half-maximal at 17.7 µM (IC50). Also, on Human HDAC1 [1], the IC50 is > 50 µM. On Human HDAC1 [2], the IC50 came out at 139 µM. Besides, the IC50 on Human HDAC2 (4 h preincubation) came out at 72.7 µM. In addition, the IC50 on Human HDAC2 (No preincubation) was > 50 µM.

With `Nc1ncc(-c2ccccc2)cc1NC(=O)CCCCCCNc1c2c(nc3ccccc13)CCCC2` [Example 20, N-(2-amino-5-phenylpyridin-3-yl)-7-[(1,2,3,4-tetrahydroacridin-9-yl)amino]heptanamide], the melting point was 49 to 50 °C. For the same compound, half-maximal inhibition in data set [3] (4 h preincubation) (IC50) was put at 109 µM. In data set [3] (No preincubation), the IC50 is > 50 µM. On Human HDAC1 [1], the IC50 amounted to 594 µM. In addition, at Human HDAC1 [2], the IC50 was > 50 µM. In addition, the IC50 at Human HDAC2 (4 h preincubation) was > 50 µM. The IC50 at Human HDAC2 (No preincubation) is > 50 µM.

In the case of `Nc1ccc(-c2cccnc2)cc1NC(=O)CCCCCCNc1c2c(nc3ccccc13)CCCC2` [Example 21, N-[2-amino-5-(pyridin-3-yl)phenyl]-7-[(1,2,3,4-tetrahydroacridin-9-yl)amino]heptanamide], the IC50 was 30.7 µM in data set [3] (4 h preincubation); 78.1 µM in data set [3] (No preincubation); 3.97 µM on Human HDAC1 [1]; 8.55 µM at Human HDAC1 [2]; 2.79 µM on Human HDAC2 (4 h preincubation); 3.37 µM at Human HDAC2 (No preincubation).

Compound `CC(C)(C)c1ccc(N)c(NC(=O)CCCCCCNc2c3c(nc4ccccc24)CCCC3)c1` [Example 14, N-[2-amino-5-(tert-butyl)phenyl]-7-[(1,2,3,4-tetrahydroacridin-9-yl)amino]heptanamide] registered a melting point of 75 to 76 °C. In addition, the IC50 in data set [3] (4 h preincubation) was > 50 µM. The IC50 in data set [3] (No preincubation) was > 50 µM. The IC50 at Human HDAC1 [1] is > 50 µM. Besides, the IC50 on Human HDAC1 [2] was > 50 µM. Besides, the IC50 at Human HDAC2 (4 h preincubation) is > 50 µM. Further, the IC50 on Human HDAC2 (No preincubation) was > 50 µM.

For orientation: IC50 means the concentration at which inhibition is half-maximal. Broadly, the melting point is the temperature, or range, at which the solid turns liquid.
